Results as given in ChEMBL document CHEMBL1201862, “PubChem BioAssay data set” (2004).
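Compound exposure: 48 hours, 5 concentrations, 96-well plates. The concentration for 50% growth inhibition is given as GI50.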 The source made the active and inactive calls. Cut-off read from the data, not from the text of the source: active = GI50 up to about 1.1 µM and inactive = higher.

Experiments:
Experiment in all cases: NCI-60 cell line screen, 48 h
[1] = tested on: DMS-114
[2] = tested on: SNB-19
[3] = tested on: UO-31
[4] = tested on: HOP-92
[5] = tested on: OVCAR-5
[6] = tested on: HT-29
[7] = tested on: OVCAR-8
[8] = tested on: A549
[9] = tested on: M14
[10] = tested on: NCI-H23
[11] = tested on: UACC-257
[12] = tested on: HCT-116
[13] = tested on: SR
[14] = tested on: NCI-H460
[15] = tested on: M19-MEL
[16] = tested on: RXF 631
[17] = tested on: KM12
[18] = tested on: SK-MEL-28
[19] = tested on: SF-295
[20] = tested on: TK-10
[21] = tested on: IGROV-1
[22] = tested on: HOP-62
[23] = tested on: CCRF-CEM
[24] = tested on: NCI-H522
[25] = tested on: SK-OV-3
[26] = tested on: DMS-273
[27] = tested on: SNB-78
[28] = tested on: UACC-62
[29] = tested on: MOLT-4
[30] = tested on: HL-60
[31] = tested on: ACHN
[32] = tested on: EKVX
[33] = tested on: A498
[34] = tested on: RXF 393
[35] = tested on: U-251
[36] = tested on: SK-MEL-2
[37] = tested on: SW-620
[38] = tested on: OVCAR-3
[39] = tested on: NCI-H226
[40] = tested on: HOP-18
[41] = tested on: LXFL 529
[42] = tested on: LOX IMVI
[43] = tested on: K562
[44] = tested on: COLO 205
[45] = tested on: SF-268
[46] = tested on: 786-0
[47] = tested on: SNB-75
[48] = tested on: SF-539
[49] = tested on: SK-MEL-5
[50] = tested on: XF498
[51] = tested on: DLD-1
[52] = tested on: KM-20L2
[53] = tested on: SN12C
[54] = tested on: HCC 2998
[55] = tested on: Malme-3M
[56] = tested on: RPMI-8226
[57] = tested on: HCT-15

CCN(CC)CSc1nc2ccccc2o1
GI50 [1]: > 100 µM (inactive) | GI50 [2]: > 100 µM (inactive) | GI50 [3]: > 100 µM (inactive) | GI50 [4]: > 100 µM (inactive) | GI50 [5]: > 100 µM (inactive) | GI50 [6]: > 100 µM (inactive) | GI50 [7]: > 100 µM (inactive) | GI50 [8]: > 100 µM (inactive) | GI50 [9]: > 100 µM (inactive) | GI50 [10]: > 100 µM (inactive) | GI50 [11]: > 100 µM (inactive) | GI50 [12]: > 100 µM (inactive) | GI50 [13]: > 100 µM (inactive) | GI50 [14]: > 100 µM (inactive) | GI50 [15]: > 100 µM (inactive) | GI50 [16]: > 100 µM (inactive) | GI50 [17]: > 100 µM (inactive) | GI50 [18]: > 100 µM (inactive) | GI50 [19]: > 100 µM (inactive) | GI50 [20]: > 100 µM (inactive) | GI50 [21]: > 100 µM (inactive) | GI50 [22]: > 100 µM (inactive) | GI50 [23]: > 100 µM (inactive) | GI50 [24]: > 100 µM (inactive) | GI50 [25]: > 100 µM (inactive) | GI50 [26]: > 100 µM (inactive) | GI50 [27]: > 100 µM (inactive) | GI50 [28]: > 100 µM (inactive) | GI50 [29]: > 100 µM (inactive) | GI50 [30]: > 100 µM (inactive) | GI50 [31]: > 100 µM (inactive) | GI50 [32]: > 100 µM (inactive) | GI50 [33]: > 100 µM (inactive) | GI50 [34]: > 100 µM (inactive) | GI50 [35]: > 100 µM (inactive)

N#CC1(Cc2ccc(N)cc2)c2ccccc2C=CN1C(=O)c1ccccc1 (stereo not drawn)
GI50 [1]: 38.8 µM (inactive) | GI50 [2]: 41.8 µM (inactive) | GI50 [3]: 19.8 µM (inactive) | GI50 [36]: 9.29 µM (inactive) | GI50 [4]: 33.6 µM (inactive) | GI50 [5]: > 100 µM (inactive) | GI50 [6]: 36.1 µM (inactive) | GI50 [7]: 40.6 µM (inactive) | GI50 [8]: 35.7 µM (inactive) | GI50 [9]: 25.6 µM (inactive) | GI50 [37]: 68.2 µM (inactive) | GI50 [10]: 47.1 µM (inactive) | GI50 [11]: 39.7 µM (inactive) | GI50 [12]: 54 µM (inactive) | GI50 [13]: 24.8 µM (inactive) | GI50 [38]: 43.9 µM (inactive) | GI50 [39]: 39.2 µM (inactive) | GI50 [40]: 25.2 µM (inactive) | GI50 [41]: 35.8 µM (inactive) | GI50 [42]: 51.6 µM (inactive) | GI50 [43]: 26.5 µM (inactive) | GI50 [15]: 40.1 µM (inactive) | GI50 [17]: 47.5 µM (inactive) | GI50 [44]: 27.3 µM (inactive) | GI50 [45]: 40.6 µM (inactive) | GI50 [18]: 79.3 µM (inactive) | GI50 [46]: 50.2 µM (inactive) | GI50 [19]: 33 µM (inactive) | GI50 [20]: 44.4 µM (inactive) | GI50 [47]: 29.3 µM (inactive) | GI50 [21]: 77.6 µM (inactive) | GI50 [48]: 60.5 µM (inactive) | GI50 [22]: > 100 µM (inactive) | GI50 [49]: 21.8 µM (inactive) | GI50 [23]: 29 µM (inactive) | GI50 [24]: 60.1 µM (inactive) | GI50 [50]: 28.9 µM (inactive) | GI50 [51]: 40 µM (inactive) | GI50 [52]: 34.1 µM (inactive) | GI50 [25]: 66.4 µM (inactive) | GI50 [26]: 47.1 µM (inactive) | GI50 [53]: 41.2 µM (inactive) | GI50 [27]: 47.9 µM (inactive) | GI50 [28]: 30.8 µM (inactive) | GI50 [29]: 28.9 µM (inactive) | GI50 [30]: 15.8 µM (inactive) | GI50 [31]: 31.7 µM (inactive) | GI50 [32]: 38.7 µM (inactive) | GI50 [33]: 40 µM (inactive) | GI50 [34]: 27.4 µM (inactive) | GI50 [54]: > 100 µM (inactive) | GI50 [55]: 24.4 µM (inactive) | GI50 [35]: 46.7 µM (inactive) | GI50 [56]: 35.2 µM (inactive)

CC(C)(C)C1CCC(O)(c2ccccc2)CC1 (stereo not drawn)
GI50 [1]: 45.6 µM (inactive) | GI50 [2]: > 100 µM (inactive) | GI50 [3]: > 100 µM (inactive) | GI50 [36]: > 100 µM (inactive) | GI50 [5]: > 100 µM (inactive) | GI50 [57]: 94.2 µM | GI50 [6]: 74.3 µM (inactive) | GI50 [7]: 88.3 µM (inactive) | GI50 [8]: > 100 µM (inactive) | GI50 [9]: 71.8 µM (inactive) | GI50 [37]: > 100 µM (inactive) | GI50 [10]: > 100 µM (inactive) | GI50 [11]: 54.6 µM (inactive) | GI50 [12]: 96.2 µM (inactive) | GI50 [13]: 33.4 µM (inactive) | GI50 [38]: 70.1 µM (inactive) | GI50 [39]: > 100 µM (inactive) | GI50 [40]: > 100 µM (inactive) | GI50 [14]: > 100 µM (inactive) | GI50 [41]: 78.2 µM (inactive) | GI50 [42]: 77.6 µM (inactive) | GI50 [43]: 47.6 µM (inactive) | GI50 [15]: > 100 µM (inactive) | GI50 [17]: > 100 µM (inactive) | GI50 [44]: > 100 µM (inactive) | GI50 [18]: > 100 µM (inactive) | GI50 [46]: 63.2 µM (inactive) | GI50 [19]: > 100 µM (inactive) | GI50 [20]: > 100 µM (inactive) | GI50 [47]: 86.7 µM (inactive) | GI50 [21]: > 100 µM (inactive) | GI50 [48]: > 100 µM (inactive) | GI50 [22]: > 100 µM (inactive) | GI50 [49]: 38.3 µM (inactive) | GI50 [23]: 92.9 µM (inactive) | GI50 [24]: 40.6 µM (inactive) | GI50 [50]: 1.97 µM (inactive) | GI50 [51]: > 100 µM (inactive) | GI50 [52]: > 100 µM (inactive) | GI50 [25]: > 100 µM (inactive) | GI50 [26]: > 100 µM (inactive) | GI50 [53]: 69.5 µM (inactive) | GI50 [27]: > 100 µM (inactive) | GI50 [28]: > 100 µM (inactive) | GI50 [29]: 59.8 µM (inactive) | GI50 [30]: 27.4 µM (inactive) | GI50 [31]: > 100 µM (inactive) | GI50 [32]: > 100 µM (inactive) | GI50 [33]: > 100 µM (inactive) | GI50 [34]: 50.7 µM (inactive) | GI50 [54]: > 100 µM (inactive) | GI50 [55]: > 100 µM (inactive) | GI50 [35]: 40.6 µM (inactive) | GI50 [56]: 47.8 µM (inactive)
